Results taken from article PMC8812461, “Synthesis of New 3-Arylcoumarins Bearing N-Benzyl Triazole Moiety: Dual Lipoxygenase and Butyrylcholinesterase Inhibitors With Anti-Amyloid Aggregation and Neuroprotective Properties Against Alzheimer’s Disease” (Frontiers in Chemistry, 2022).

Legend:
[1] = target: T1, 15-LOX (soybean lipoxygenase) (Glycine max, UniProt P08170); test: Soybean 15-LOX inhibition assay; assay type: biochemical
T1 construct: purchased Merck or Aldrich
T1 sequence (P08170 1-839): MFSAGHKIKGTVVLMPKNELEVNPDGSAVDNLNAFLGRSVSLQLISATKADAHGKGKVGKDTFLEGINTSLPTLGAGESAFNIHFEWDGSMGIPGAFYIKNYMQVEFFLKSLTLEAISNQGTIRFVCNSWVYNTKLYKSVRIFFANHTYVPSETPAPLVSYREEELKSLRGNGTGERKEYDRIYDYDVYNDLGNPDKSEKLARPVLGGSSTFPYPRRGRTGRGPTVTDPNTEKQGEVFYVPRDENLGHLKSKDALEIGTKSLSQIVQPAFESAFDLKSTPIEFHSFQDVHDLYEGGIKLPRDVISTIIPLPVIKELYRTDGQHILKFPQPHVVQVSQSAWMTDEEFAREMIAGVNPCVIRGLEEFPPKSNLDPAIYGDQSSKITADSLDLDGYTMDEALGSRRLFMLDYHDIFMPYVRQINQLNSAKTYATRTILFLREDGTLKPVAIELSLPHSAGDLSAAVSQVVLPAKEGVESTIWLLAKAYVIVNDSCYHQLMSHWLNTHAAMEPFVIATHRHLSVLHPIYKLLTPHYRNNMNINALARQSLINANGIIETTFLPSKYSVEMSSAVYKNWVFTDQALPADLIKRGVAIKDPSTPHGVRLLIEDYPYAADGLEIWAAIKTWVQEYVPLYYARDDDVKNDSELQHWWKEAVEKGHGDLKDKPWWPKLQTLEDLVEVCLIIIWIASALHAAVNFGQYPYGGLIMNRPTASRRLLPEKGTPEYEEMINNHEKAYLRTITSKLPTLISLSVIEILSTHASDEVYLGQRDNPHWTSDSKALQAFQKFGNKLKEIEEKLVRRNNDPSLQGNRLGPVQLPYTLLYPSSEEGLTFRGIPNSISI
Experimental: A solution of the target compound was prepared in DMSO, and it was diluted with phosphate buffer (0.1 M, pH = 8.0).

[2] = target: T2, BuChE (from equine serum) (Equus caballus, UniProt P81908); test: biochemical; assay type: biochemical; settings: mean ± SEM of three experiments, read-out: eq BuChE IC50
T2 construct: BuChE from equine serum was employed for Ellman’s assay; purchased Merck or Aldrich; host or cells: equine serum
Experimental: (§1) AChE from electrophorus electricus and BuChE from equine serum was employed for Ellman’s assay. Each compound (5.0 mg) was dissolved in 1.0 ml of DMSO. […] Briefly, a mixture of phosphate buffer (2.0 ml, 0.1 M, pH = 8.0), 60.0 µl of DTNB solution, and 20.0 µl of AChE/BuChE was prepared, and 30.0 µl of the test compounds in different concentrations were then added to the mixture. Next, a solution of the substrate (acetylthiocholine iodide/butyrylthiocholine iodide, 20.0 µl) was added to the mixture after 10 min incubation at 25°C. All experiments were performed in triplicates, and the temperature of all solutions was controlled to be maintained at 25°C. […] The blank solution was used to validate the non-enzymatic hydrolysis of the substrate during the assessment. The blank solution was prepared by a mixture of 2.0 ml of buffer, 30.0 μl of DMSO, 60.0 μl of DTNB, and 20.0 μl of substrate. The rate of the enzymatic hydrolysis of the substrate was calculated, and % inhibition of the compounds was determined. The half maximal inhibitory concentration (IC50) values were graphically determined from inhibition curves (logarithm of the concentration of the tested compound versus percent of the inhibition).

[3] = target: T3, AChE (from electrophorus electricus) (Electrophorus electricus, UniProt O42275); test: Cholinesterase inhibition assay (Ellman's method), AChE; assay type: biochemical; settings: test concentration not given
T3 construct: purchased Merck or Aldrich
Experimental: as §1

in vitro = assay type: cell-based; settings: rat, PC12 cells, MTT, read-out: PC12 viability percent (cytotoxicity)
Experimental: The cytotoxic effect of the selected compounds (8l and 8n) on the PC12 cell line was evaluated by using the MTT-based colorimetric assay. First, the PC12 cell line was cultivated in DMEM culture medium, supplemented with fetal bovine serum (10%). […]. Thereafter, the culture medium of each well was replaced by 20 µl MTT solution (5.0 mg/ml) and incubated to form formazan crystals, followed by dissolving them in DMSO (100.0 µl) and recording the related absorbance at 570 nm using a Synergy 2 multimode plate reader (Biotek, Winooski, VT, United States). The viability percent was then calculated according to the control well, where no compound was added to the related well. The mentioned protocol was repeated in triplicates, and the mean ± SEM of the obtained results was reported.

Aβ1-42 = target: T4, Aβ1-42 (Homo sapiens, UniProt P05067); test: Self-induced Aβ1-42 aggregation (ThT assay); assay type: biochemical; settings: for Self-induced Aβ aggregation inhibition relative to donepezil: 100.0 μM, versus donepezil; for Inhibition of self-induced Aβ1-42 aggregation: Aβ1-42 10.0 μM, compound 100.0 μM, ThT
T4 construct: was used to dissolve amyloid β1-40 (Sigma A1075); purchased Sigma A1075

[4] = target: T5, Aβ1-42 in the presence of AChE (Homo sapiens, UniProt P05067); test: AChE-induced Aβ1-42 aggregation (ThT assay); assay type: biochemical; settings: compound 100.0 μM, AChE 0.01 u/ml
T5 construct: was used to dissolve amyloid β1-40 (Sigma A1075); purchased Sigma (Aβ); Merck or Aldrich (AChE) A1075 (Aβ)

BV-2 cells = test: Hydrogen peroxide cell-based assay (extracellular H2O2, amyloid β-induced); design: species or system murine; settings: 10.0 μM compound 3 h before amyloid β1-40 (5.0 μM), 24 h
Experimental: The BV-2 immortalized murine microglial cell line was cultured in a high-glucose Dulbecco’s modified Eagle medium (DMEM) without phenol red supplemented with 10% of FBS, %1 of L -glutamine, and 1% of penicillin–streptomycin solution. The cells were kept in a moistened atmosphere at 37°C. Quantitation of the extracellular H2O2 produced by the BV-2 cells was detected using the Oxiselect Sta-343 hydrogen peroxide assay according to the kit’s protocol. Briefly, the cells were seeded in a 384-well plate (1,000 cells/well) overnight in 50.0 μl/well of serum and phenol red free culture medium, then treated with 10.0 μM of the compounds for 3 h, prior to amyloid β1-40 treatment (5.0 μM) and incubated for 24 h. An amount of 25.0 μl of medium was collected and mixed with 250.0 μl aqueous working solution. The absorbance values at 595 nm of each well were measured using a BMG Labtech Omega FLUOstar microplate reader. BHT (butylated hydroxytoluene, Cell biolabs) was also tested as a reference antioxidant agent ([Datki et al., 2003]).

BuChE = target: T6, BuChE (Equus caballus, UniProt P81908); test: Kinetic study of BuChE inhibition (Lineweaver–Burk); assay type: biochemical; settings: secondary plot; inhibitor 0, 10.0, 20.0, 40.0 µM; read-out: Inhibitory constant (Ki) for BuChE
T6 construct: BuChE from equine serum was employed for Ellman’s assay; purchased Merck or Aldrich; host or cells: equine serum
Experimental: Kinetics of the BuChE inhibition activity was studied for compound 8l at different inhibitor concentrations (0, 10.0, 20.0, and 40.0 µM) as mentioned in the ChE inhibition assay section. Different concentrations of the substrate (S) and butyrylthiocholine iodide (BuChI) were applied to obtain the initial velocity measurements, in each case. The reciprocal of the S (1/S) was plotted against the initial velocity (1/v) ([Rampa et al., 2000]). […] […]. Ellman’s method was utilized to assess anti-AChE/BuChE activity of the synthesized compounds ([Ellman et al., 1961]). AChE from electrophorus electricus and BuChE from equine serum was employed for Ellman’s assay. Each compound (5.0 mg) was dissolved in 1.0 ml of DMSO. […] Briefly, a mixture of phosphate buffer (2.0 ml, 0.1 M, pH = 8.0), 60.0 µl of DTNB solution, and 20.0 µl of AChE/BuChE was prepared, and 30.0 µl of the test compounds in different concentrations were then added to the mixture. […] The change in the absorbance wavelength of 412 nm was recorded for 1 min. […] The rate of the enzymatic hydrolysis of the substrate was calculated, and % inhibition of the compounds was determined. The half maximal inhibitory concentration (IC50) values were graphically determined from inhibition curves (logarithm of the concentration of the tested compound versus percent of the inhibition).

T4 sequence (P05067 672-711): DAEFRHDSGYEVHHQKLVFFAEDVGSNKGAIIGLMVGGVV
T3 sequence (O42275 24-633): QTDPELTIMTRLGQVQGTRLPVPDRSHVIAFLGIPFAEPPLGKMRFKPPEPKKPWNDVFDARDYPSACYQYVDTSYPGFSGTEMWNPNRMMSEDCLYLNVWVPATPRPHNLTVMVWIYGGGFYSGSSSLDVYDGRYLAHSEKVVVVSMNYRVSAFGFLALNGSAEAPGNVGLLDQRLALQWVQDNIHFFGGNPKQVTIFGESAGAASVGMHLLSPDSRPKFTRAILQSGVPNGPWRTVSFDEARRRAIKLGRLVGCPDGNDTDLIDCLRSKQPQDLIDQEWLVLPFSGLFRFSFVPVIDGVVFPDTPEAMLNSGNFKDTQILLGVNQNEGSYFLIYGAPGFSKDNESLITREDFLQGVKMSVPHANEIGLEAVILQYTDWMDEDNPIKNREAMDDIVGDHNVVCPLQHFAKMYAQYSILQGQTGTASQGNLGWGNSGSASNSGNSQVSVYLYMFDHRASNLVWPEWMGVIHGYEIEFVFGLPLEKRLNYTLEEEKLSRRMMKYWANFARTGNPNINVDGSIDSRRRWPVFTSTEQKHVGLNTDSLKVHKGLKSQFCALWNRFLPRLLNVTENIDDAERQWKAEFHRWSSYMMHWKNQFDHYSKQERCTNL
T5 sequence (P05067 672-711): as the sequence (P05067 672-711) above
T2 sequence (P81908 whole entry): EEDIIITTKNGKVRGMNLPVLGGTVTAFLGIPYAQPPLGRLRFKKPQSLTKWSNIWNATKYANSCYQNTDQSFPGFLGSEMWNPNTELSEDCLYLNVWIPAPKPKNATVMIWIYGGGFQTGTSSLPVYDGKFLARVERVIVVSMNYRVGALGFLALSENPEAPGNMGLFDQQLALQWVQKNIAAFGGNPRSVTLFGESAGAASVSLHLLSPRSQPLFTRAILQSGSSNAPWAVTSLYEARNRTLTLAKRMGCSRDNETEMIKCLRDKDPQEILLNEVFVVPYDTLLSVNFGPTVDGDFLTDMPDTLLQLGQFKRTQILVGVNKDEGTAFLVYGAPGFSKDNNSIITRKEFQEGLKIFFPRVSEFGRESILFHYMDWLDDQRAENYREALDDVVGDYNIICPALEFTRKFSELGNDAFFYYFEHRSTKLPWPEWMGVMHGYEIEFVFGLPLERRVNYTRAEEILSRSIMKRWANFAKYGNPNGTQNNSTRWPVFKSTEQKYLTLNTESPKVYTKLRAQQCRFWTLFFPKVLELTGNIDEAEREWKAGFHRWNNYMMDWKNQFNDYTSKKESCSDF
T6 sequence (P81908 whole entry): as above

Compound	IC50 [1] [µM]	IC50 [2] [µM]	ee AChE %inhib. [3] [%]	viability at 24 h, 50 µM (in vitro) [%]	Self-induced Aβ aggregation inhibition relative to donepezil (Aβ1-42) [times]	Inhibition of self-induced Aβ1-42 aggregation (Aβ1-42) [%]	inhibition at 100 µM [4] [%]	H2O2 level of BV-2 cells (% ± SEM of control) (BV-2 cells)	Ki (BuChE) [µM]
COc1cccc(Cn2cc(COc3ccc(-c4cc5ccccc5oc4=O)cc3)nn2)c1 [8l, 3-(4-((1-(3-Methoxybenzyl)-1H-1,2,3-triazol-4-yl)methoxy)phenyl)-2H-chromen-2-one]	39.1 ± 1.1	19.5 ± 0.9	16.5	96.5 ± 0.9	1.44	61.3 ± 4.8	36.2 ± 6.1	97.6 ± 6.1 % of control	14.1
COc1cccc2cc(-c3ccc(OCc4cn(Cc5ccccc5)nn4)cc3)c(=O)oc12 [8n, 3-(4-((1-Benzyl-1H-1,2,3-triazol-4-yl)methoxy)phenyl)-8-methoxy-2H-chromen-2-one]	42.5 ± 1.7	45.1 ± 1.3	49.9	95.2 ± 1.1	1.79	76.2 ± 6.4	25.1 ± 8.7	122.4 ± 8.3 % of control	
Cc1cc(C(C)(C)C)c(O)c(C(C)(C)C)c1 [BHT, butylated hydroxytoluene, reference compound]								114.4 ± 8.5 % of control	
